According to patent publication US5482858A, “Polypeptide linkers for production of biosynthetic proteins” (priority 1993, dated 1996):

Key:
[1] = system: 26-10 BABS (sFv), single chain biosynthetic antibody binding site VH-(Gly4-Ser)3-VL mimicking murine anti-digoxin monoclonal 26-10; assay: Specificity determination by radioimmunoassay (inhibition of 125I-digoxin binding), 26-10 BABS
Protocol: After the plates were washed and blocked with 1% horse serum in PBSA, solutions (50 μl) containing 26-10 Fab or the BABS in either PBSA or 0.01M sodium acetate at pH 5.5 were added to the wells and incubated 2-3 hrs at room temperature.

[2] = target: anti-digoxin 26-10 Fab (murine monoclonal 26-10); assay: Affinity determination by equilibrium binding of 3H-digoxin (immunoprecipitation), 26-10 Fab
Protocol: (§1) Association constants were measured by equilibrium binding studies. […] After 2-3 hrs of incubation at room temperature, the protein was precipitated by the addition of 100 μl goat antiserum to murine Fab fragment (ICN Immuno-Biologicals), 50 μl of the IgG fraction of rabbit anti-goat IgG (ICN ImmunoBiologicals), and 50 μl of a 10% suspension of protein A-Sepharose (Sigma). Following 2 hrs at 4° C., bound and free antigen were separated by vacuum filtration on glass fiber filters (Vacuum Filtration Manifold, Millipore, Bedford, Mass.). Filter disks were then counted in 5 ml of […] scintillation fluid with a Model 1500 Tri-Carb Liquid Scintillation Analyzer (Packard, Sterling, Va.). The Scatchard analyses of the untransformed radioligand binding data using LIGAND, a non-linear curve fitting program based on mass action. Ko s were also calculated by Sips plots and binding isotherms shown in FIG. 13A for the BABS and 13B for the Fab. […] These binding data are also plotted in linear form as Sips plots (inset), having the same abscissa as the binding isotherm but with the ordinate representing log r/(n-r), defined below.

[3] = target: 26-10 BABS, single chain biosynthetic antibody binding site VH-(Gly4-Ser)3-VL mimicking murine anti-digoxin monoclonal 26-10; assay: Affinity determination by equilibrium binding of 3H-digoxin (immunoprecipitation), 26-10 BABS
Protocol: as §1

[4] = target: IgG2a,k monoclonal antibody 26-10 (parent anti-digoxin antibody); conditions: cited from earlier work
[5] = normalizing glycoside Digoxigenin

SMILES	normalized concentration of inhibitor giving 50% inhibition of 125I-digoxin binding [1, 5]	normalized concentration of inhibitor giving 50% inhibition of 125I-digoxin binding ([1]; normalizing glycoside Digoxin)	also measured
C[C@]12CC[C@H](O)C[C@H]1CC[C@@H]1[C@@H]2C[C@@H](O)[C@]2(C)[C@@H](C3=CC(=O)OC3)CC[C@]12O [Digoxigenin]	1.0	7.3	–
C[C@]12CC[C@H](O)C[C@H]1CC[C@@H]1[C@@H]2CC[C@]2(C)[C@@H](C3=CC(=O)OC3)CC[C@]12O [Digitoxigenin]	0.4	2.6	–
C[C@@H]1O[C@@H](O[C@H]2C[C@@H](O)[C@]3(CO)[C@H]4[C@H](O)C[C@]5(C)[C@@H](C6=CC(=O)OC6)CC[C@]5(O)[C@@H]4CC[C@]3(O)C2)[C@H](O)[C@H](O)[C@H]1O [Ouabain]	21	150	–
C[C@H]1O[C@@H](O[C@H]2[C@@H](O)C[C@H](O[C@H]3[C@@H](O)C[C@H](O[C@H]4CC[C@@]5(C)[C@H](CC[C@@H]6[C@@H]5C[C@@H](O)[C@]5(C)[C@@H](C7=CC(=O)OC7)CC[C@]65O)C4)O[C@@H]3C)O[C@@H]2C)C[C@H](O)[C@@H]1O [Digoxin]	–	–	Association Constant, Ko (Fab) ([2]; Binding isotherm): 3.3e+08 M⁻¹; Association Constant, Ko (Fab) ([2]; Scatchard plot): (1.9 ± 0.2) × 10^8 M^-1; Association Constant, Ko (Fab) ([2]; Sips plot): 1.8e+08 M⁻¹; Association Constant, Ko (BABS) ([3]; Binding isotherm): 5.2e+07 M⁻¹; Association Constant, Ko (BABS) ([3]; Scatchard plot): (3.2 ± 0.9) × 10^7 M^-1; Association Constant, Ko (BABS) ([3]; Sips plot): 2.6e+07 M⁻¹; Kd [4]: 0.185 nM
C[C@H]1O[C@@H](O[C@H]2[C@@H](O)C[C@H](O[C@H]3[C@@H](O)C[C@H](O[C@H]4CC[C@@]5(C)[C@H](CC[C@@H]6[C@@H]5CC[C@]5(C)[C@@H](C7=CC(=O)OC7)CC[C@]65O)C4)O[C@@H]3C)O[C@@H]2C)C[C@H](O)[C@@H]1O [Digitoxin]	0.3	2.0	–
C[C@H]1O[C@@H](O[C@H]2[C@@H](O)C[C@H](O[C@H]3[C@@H](O)C[C@H](O[C@H]4CC[C@@]5(C)[C@H](CC[C@@H]6[C@@H]5CC[C@]5(C)[C@@H](C7=CC(=O)OC7)[C@@H](O)C[C@]65O)C4)O[C@@H]3C)O[C@@H]2C)C[C@H](O)[C@@H]1O [Gitoxin]	8.5	62	–
CC(=O)OC1CCC2(C=O)C3CCC4(C)C(C5=CC(=O)OC5)CCC4(O)C3CCC2(O)C1 (stereo not shown) [Acetyl Strophanthidin]	0.8	5.9	–
